Assay results from paper PMC7969007, “The CRISPR ancillary effector Can2 is a dual-specificity nuclease potentiating type III CRISPR defence” (Nucleic Acids Research, 2021).

Assays:
SthCan2 = molecular target: T1, SthCan2 (Sulfobacillus thermosulfidooxidans, UniProt A0A8I3AZU2); experiment: X-ray crystal structure (co-crystal, […] A); type: binding; details: SeMet protein, protein:cA4 1:1 molar; one cA4 per dimer at the CARF dimer interface; allosteric activator of Mn2+-dependent nuclease; not degraded by the enzyme
T1 construct: synthetic gene in pEHisV5TEV, His tag cut by TEV, E. coli C43 (SeMet in B834 for the crystal); homodimer; residues 3-366 traced
T1 sequence (A0A8I3AZU2 1-366): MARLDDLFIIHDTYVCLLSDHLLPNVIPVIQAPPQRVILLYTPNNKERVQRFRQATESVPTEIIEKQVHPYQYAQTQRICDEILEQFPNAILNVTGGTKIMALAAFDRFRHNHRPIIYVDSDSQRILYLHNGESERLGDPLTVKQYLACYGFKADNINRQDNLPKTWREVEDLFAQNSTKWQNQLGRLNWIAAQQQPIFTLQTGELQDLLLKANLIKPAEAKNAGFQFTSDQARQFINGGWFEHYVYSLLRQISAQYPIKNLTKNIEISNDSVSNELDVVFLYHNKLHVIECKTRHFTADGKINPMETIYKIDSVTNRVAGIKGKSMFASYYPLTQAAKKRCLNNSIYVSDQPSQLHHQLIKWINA

[1] = molecular target: Can2 (CRISPR ancillary nuclease 2) from Sulfobacillus thermosulfidooxidans, selenomethionine labelled (Sulfobacillus thermosulfidooxidans); experiment: crystal structure; SeMet SthCan2 at 8 mg/ml co-crystallised with cA4 at 1:1 protein:cA4; 20% (w/v) PEG 3350, 0.2 M ammonium nitrate pH 6.3, room temperature; 2.02 Å; four protein molecules in the asymmetric unit

Row | stoichiometry N [1] | Compound | X-ray crystal structure (co-crystal, 2.02 A) (SthCan2)
1 | – | Nc1ncnc2c1ncn2[C@@H]1O[C@@H]2COP(=O)(O)O[C@H]3[C@@H](O)[C@H](n4cnc5c(N)ncnc54)O[C@@H]3COP(=O)(O)O[C@H]3[C@@H](O)[C@H](n4cnc5c(N)ncnc54)O[C@@H]3COP(=O)(O)O[C@H]3[C@@H](O)[C@H](n4cnc5c(N)ncnc54)O[C@@H]3COP(=O)(O)O[C@H]2[C@H]1O [cA4] | form two dimers each bound to a molecule of cA4
2 | 2 | Can2 (CRISPR ancillary nuclease 2) from Sulfobacillus thermosulfidooxidans, selenomethionine labelled (enzyme) | –
